Measured values as given in patent US4743617A, “Heterocyclyl-2-propyn-1-amines” (Merrell Dow Pharmaceuticals Inc., priority 1987, dated 1988).

What was measured:
[1] = tested on: dopamine-beta-hydroxylase (DBH); assay: time-dependent DBH inhibitory activity in vitro (oxygen uptake, tyramine substrate); format: biochemical; settings: Concentration 5 × 10^-5 M, preferably pH 5.0, 37° C.
Protocol: The DBH inhibitory properties of the compounds of this invention can readily be determined by standard and well-known procedures. […] The test compound is added at the desired concentration, and the system is incubated. At different time internals, aliquots are taken and DBH activity is measured using tyramine as the substrate. The reaction is followed by measuring oxygen uptake using a polarographic electrode and an oxygen monitor by the method of S. May et al., J. Bio. Chem. 256, 2258 (1981).

[2] = tested on: spontaneously hypertensive rats; assay: lowering of mean blood pressure in conscious spontaneously hypertensive rats (Table II, DBH inhibitory activity in vivo); settings: 30 mg/kg (ip), unanesthetized spontaneously hypertensive rats
Protocol: The ability of the compounds of this invention to lower blood pressure can be determined in vivo using standard and well-known procedures such as those employed for the continuous recording of arterial blood pressure in conscious animals. For instance, test compounds are administered intraperitoneally (ip) to unanesthetized spontaneously hypertensive rats and the arterial blood pressure is monitored continuously. In tests utilizing the above procedure, the antihypertensive effect of the test compound is readily apparent as indicated by the degree of lowering of mean blood pressure (MBP) noted in Table II.

NCC#Cc1cccs1 [3-(2-thienyl)-2-propyn-1-amine]
t 1/2: time required for 50% log activity remaining [1]: 9.2 min.
Duration [2]: 14 h
Max Change MBP +/St. dev. [2]: -20+/-8 mm Hg
